Laboratory results taken from patent publication US20160082071A1, “METHODS OF TREATING MYELOID LEUKEMIA” (BIOKINE THERAPEUTICS LTD., priority 2013, published 2016).
Read-outs that look alike come from different tables or passages of the source.

Assays:
[1] = test system: Normal C57BL/6 female mice; settings: mouse, in vivo
Protocol: (§1) Lyophilized 4F-benzoyl-TN14003 was manufactured by MSD N.V. The compound was dissolved with water for injection (WFI) at a final stock concentration of 25 mg/ml and stored at −20° C. until use. Before injection to the mice, 4F-benzoyl-TN14003 was thawed and diluted with PBS to final concentration of 5 mg/ml. Actual dosing solutions were prepared by diluting the 5 mg/ml stock solution (total dose including salt) in PBS just before the injection. 4F-benzoyl-TN14003 was administered at a constant dose volume of 200 μL.
(§2) Cytarabine (Cytosine arabinoside; ARA-C) was purchased from Hadassah cytotoxica pharmacy (Israel). ARA-C was provided from Hadassah cytotoxica pharmacy at concentration of 100 mg/ml. Actual dose solution (200 mg/Kg) was prepared by diluting the 100 mg/ml stock solution in PBS.
(§3) Normal C57BL/6 female mice, 9-10 week old, about 20 gram in weight, were used. The animals were kept in groups of a maximum of 10 animals in polysulphone cages (425×266×185 mm), fitted with solid bottoms and filled with wood shavings as bedding material. The animals were provided ad libitum a commercial rodent diet (Harlan Teklad™ Ra/Mouse Diet) and allowed free access to autoclaved water, supplied to each cage via polysulphone bottles with stainless steel sipper-tubes. From the first day of ARA-C dosing wet food was placed at the bottom of the cage. Ten animals were randomly allocated per treatment group.
(§4) The treatments groups were as followed (10 animals per treatment group): • Group A: untreated control. • Group B: animals administered with 4FB-TN14003 at a dose of 2.4, 4.8, 9.6 or 12 mg/Kg daily from day 1 to day 7. • Group C: animals administered with ARA-C at a dose of 200 mg/Kg daily from day 3 to 7. • Group D: animals administered with 4FB-TN14003 as in group B (at a dose of 2.4, 4.8, 9.6 or 12 mg/Kg daily from day 1 to day 7) and also with ARA-C as in group C (at a dose of 200 mg/Kg daily from day 3 to 7).
(§5) 4FB-TN14003 was injected SC at a constant dose volume of 200 μL/mouse (based on the latest determined body weight-average of 20 gr), once daily for 7 consecutive days (days 1-7). Control mice were injected with the vehicle (PBS) only under the same regimen.
(§6) ARA-C was diluted in PBS and injected SC at a constant dose of 200 mg/kg and at constant volume of 200 μL/mouse, once daily for 5 consecutive days (days 3-7). In the combination groups (groups 7-10) ARA-C was injected 4 hours following 4FB-TN14003 injection.
(§7) Blood samples were collected on day 12 of the experiment. The mice in each group were subjected to terminal bleeding from the orbital sinus. Blood samples (ca. 400-500 μl) were dispensed into special serum gel separation tubes (BD Microgard™) centrifuged at 13,000 rpm for 8 minutes at RT and saved the supernatant sera. Sera samples (at least 220 μl) were kept at 2-8° C. to complete blood counts (CBC).

human AML xenografts = settings: subcutaneous injections; Beider et al., Exp. Hematol. 2011; cited from earlier work
[2] = test system: malignant cells of hematopoietic origin including AML; settings: cited from earlier work
[3] = test system: Normal C57BL/6 female mice; assay: Toxicity assay: complete blood counts in mice treated with 4F-benzoyl-TN14003, ARA-C or both
Protocol: as §1, §2, §3, §4, §5, §6, §7

Compound	hematocrit [1]	hemoglobin (HGB) [1]	lymphocyte Abs [1]	platelets [1]	red blood-cells (RBC) [1]	growth of human AML xenografts (human AML xenografts)	cytotoxicity toward malignant cells of hematopoietic origin including AML [2]	levels of platelets ([3]; ARA-C alone versus ARA-C in combination with 4F-benzoyl-TN14003, FIG. 5)	levels of neutrophil Abs ([3]; ARA-C alone versus ARA-C in combination with 4F-benzoyl-TN14003, FIG. 7)	white blood-cells (WBC) ([3]; compared with untreated control, blood collected day 12 (five days after treatment), ARA-C 200 mg/Kg SC days 3-7, 4F-benzoyl-TN14003 2.4, 4.8, 9.6 or 12 mg/Kg SC days 1-7, FIG. 1)	red blood-cells (RBC) ([3]; compared with untreated control, blood collected day 12, FIG. 2)	hematocrit ([3]; compared with untreated control, blood collected day 12, FIG. 3)	hemoglobin (HGB) ([3]; compared with untreated control, blood collected day 12, FIG. 4)	platelets ([3]; compared with untreated control, blood collected day 12, FIG. 5)	lymphocyte Abs ([3]; compared with untreated control, blood collected day 12, FIG. 6)	neutrophil Abs ([3]; compared with untreated control, blood collected day 12, FIG. 7)
4F-benzoyl-Arg-Arg-Nal-Cys-Tyr-Cit-Lys-DLys-Pro-Tyr-Arg-Cit-Cys-Arg-NH2 [4F-benzoyl-TN14003]	did not cause a reduction	did not cause a reduction	did not cause a reduction	did not cause a reduction	did not cause a reduction	significantly reduced	CXCR4-dependent preferential cytotoxicity									
Nc1ccn([C@@H]2O[C@H](CO)[C@@H](O)[C@@H]2O)c(=O)n1 [ARA-C, Cytarabine]								equally reduced levels	equally reduced levels	drastic reduction	drastic reduction	drastic reduction	drastic reduction	drastic reduction	drastic reduction	drastic reduction
